The values below come from ChEMBL document CHEMBL4145655, “Confirmation of the Revised Structure of Samoquasine A and a Proposed Structural Revision of Cherimoline” (2018).

Structures are written as SMILES. Calls of active or inactive are those of the source. No cut-off for these calls is given here.

In experiment [1] the test system is Panel NCI-60 (60 carcinoma cell lines). The experiment is described as follows: Cytotoxicity against human NCI60 cells at 10 uM after 48 hrs by sulforhodamine B assay. The format is functional, cell-based.
For the next experiment, the system named is NUGC. The experiment is described as follows: Growth inhibition of human NUGC cells at 50 ug/ml relative to control. The format is functional. As to conditions: read-out: GI.
The next experiment concerns HONE1 cell line. The experiment is described as follows: Growth inhibition of human HONE1 cells at 50 ug/ml relative to control. Format: functional. As to conditions: read-out: GI.

For `O=c1[nH]ccc2c1cnc1ccccc12`, the outcome in experiment [1] was inactive. The inhibition of growth at 50 µg/mL in the experiment with NUGC worked out at 63%; with HONE1 cell line it was 62%.

Turning to `Cn1ccc2c(cnc3ccccc32)c1=O`, the outcome in experiment [1] was inactive.

For `O=c1occc2c1cnc1ccccc12`, in experiment [1], the result was inactive.
